Test results as given in patent publication US6878707B2, “Carboxamides useful as inhibitors of microsomal triglyceride transfer protein and of apolipoprotein b secretion” (Novartis AG, priority 2001, dated 2005).
pIC50: −log10 of the molar value.

Columns and labels:
[1] = test system: apolipoprotein B (apo B) secretion; assay: apo B assay; type: cell-based
Source text: (§1) The corresponding relevant subject matter of said PCT application is herewith incorporated by reference into the present specification.

[2] = biological target: microsomal triglyceride transfer protein (MTP) (Homo sapiens, UniProt P55157); assay: MTP assay; type: biochemical
microsomal triglyceride transfer protein (MTP), sequence (P55157 19-894, species assumed): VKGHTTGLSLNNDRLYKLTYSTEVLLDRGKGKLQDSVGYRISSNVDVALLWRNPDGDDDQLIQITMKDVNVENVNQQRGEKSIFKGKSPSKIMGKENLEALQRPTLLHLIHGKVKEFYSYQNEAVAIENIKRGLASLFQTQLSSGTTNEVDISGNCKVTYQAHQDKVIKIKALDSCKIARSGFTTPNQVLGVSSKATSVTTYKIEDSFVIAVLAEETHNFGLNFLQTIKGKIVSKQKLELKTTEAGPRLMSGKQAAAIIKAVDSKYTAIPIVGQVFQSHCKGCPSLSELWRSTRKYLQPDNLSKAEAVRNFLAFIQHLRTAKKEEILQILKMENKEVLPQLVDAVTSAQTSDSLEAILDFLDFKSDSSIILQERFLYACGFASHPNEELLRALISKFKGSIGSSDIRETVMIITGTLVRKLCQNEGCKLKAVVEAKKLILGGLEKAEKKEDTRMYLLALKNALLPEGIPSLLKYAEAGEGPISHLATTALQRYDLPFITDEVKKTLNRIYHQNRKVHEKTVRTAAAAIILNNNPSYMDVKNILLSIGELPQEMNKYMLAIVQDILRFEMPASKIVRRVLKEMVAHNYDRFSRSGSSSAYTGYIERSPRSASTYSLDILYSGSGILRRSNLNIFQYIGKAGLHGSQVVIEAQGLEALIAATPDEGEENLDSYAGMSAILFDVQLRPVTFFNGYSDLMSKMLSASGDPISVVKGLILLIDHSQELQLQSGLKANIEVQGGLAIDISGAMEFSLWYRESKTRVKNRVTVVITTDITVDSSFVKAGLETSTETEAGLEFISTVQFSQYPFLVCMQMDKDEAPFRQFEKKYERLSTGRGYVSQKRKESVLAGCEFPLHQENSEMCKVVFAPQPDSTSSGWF
microsomal triglyceride transfer protein (MTP), sequence (P07237 18-508 partner, species assumed): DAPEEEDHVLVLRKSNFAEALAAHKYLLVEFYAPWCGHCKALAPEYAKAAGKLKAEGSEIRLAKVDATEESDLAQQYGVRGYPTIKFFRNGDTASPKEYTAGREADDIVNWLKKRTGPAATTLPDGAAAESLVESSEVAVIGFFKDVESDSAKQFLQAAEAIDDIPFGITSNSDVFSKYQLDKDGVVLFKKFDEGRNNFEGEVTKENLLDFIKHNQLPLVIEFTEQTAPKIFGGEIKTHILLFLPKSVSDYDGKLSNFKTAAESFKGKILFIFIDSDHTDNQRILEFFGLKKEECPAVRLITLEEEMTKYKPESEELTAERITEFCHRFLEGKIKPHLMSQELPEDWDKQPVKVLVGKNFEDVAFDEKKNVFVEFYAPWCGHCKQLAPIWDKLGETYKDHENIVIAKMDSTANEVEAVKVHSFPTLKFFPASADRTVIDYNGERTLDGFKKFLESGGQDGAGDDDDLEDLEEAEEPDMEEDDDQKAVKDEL
Source text: as §1

[3] = in vivo lowering of plasma triglycerides and cholesterol; settings: dose of 5 mg/kg p.o.
Source text: as §1

Question: With `COC(=O)N1CCN([C@@H]2Cc3ccc(NC(=O)c4cccc(C)c4-c4ccc(C(F)(F)F)cc4)cc3C2)CC1` [Example 14, (R)-6-Methyl-4′-trifluoromethyl-1,1′-biphenyl-N-[2-[4-(methoxycarbonyl)-piperazino]indan-5-yl]-2-carboxamide] as the molecule, how does the pIC50 [1] read?
Answer: Its pIC50 is ~8.70.

Question: And the pIC50 [2]?
Answer: Its pIC50 is ~7.40.

Question: And the plasma cholesterol [3]?
Answer: The plasma cholesterol was “lowers”.

Question: What about the plasma triglycerides [3] of the same molecule?
Answer: The plasma triglycerides was “lowers”.

Question: And the melting point?
Answer: The melting point was 163 to 164 °C.

Question: With `COC1CCN(C2Cc3ccc(NC(=O)c4cccc(C)c4-c4ccc(C(F)(F)F)cc4)cc3C2)CC1` (stereo not drawn) [Example 10] as the molecule, how does the melting point read?
Answer: The melting point was 197 to 199 °C.

Question: For `Cc1cccc(C(=O)Nc2ccc3c(c2)CC(N2CCN(S(C)(=O)=O)CC2)C3)c1-c1ccc(C(F)(F)F)cc1` (stereo not drawn) [Example 24], which melting point is on record?
Answer: The melting point was 205 to 208 °C.

Question: With `Cc1cccc(C(=O)Nc2ccc3c(c2)CC(N2CCN(C(=O)CO)CC2)C3)c1-c1ccc(C(F)(F)F)cc1` (stereo not drawn) [Example 30] as the molecule, how does the melting point read?
Answer: Its melting point is 86 to 88 °C.

Question: With `COC(=O)N1CCN(C2Cc3ccc(NC(=O)c4cccc(C(F)(F)F)c4-c4ccc(C(F)(F)F)cc4)cc3C2)CC1` (stereo not drawn) [Example 5] as the molecule, how does the melting point read?
Answer: Its melting point is 210 to 212 °C.

Question: With `Cc1cccc(C(=O)Nc2ccc3c(c2)CC(N2CCN(C(=O)c4ccncc4)CC2)C3)c1-c1ccc(C(F)(F)F)cc1` (stereo not drawn) [Example 25] as the molecule, how does the melting point read?
Answer: Its melting point is 158 to 160 °C.

Question: With `O=C(Nc1ccc2c(c1)CC(N1CCOCC1)C2)c1ccccc1-c1ccc(C(F)(F)F)cc1` (stereo not drawn) [Example 8] as the molecule, how does the melting point read?
Answer: Its melting point is 191 to 194 °C.

Question: For `Cc1cccc(C(=O)Nc2ccc3c(c2)CC(N2CCN(Cc4ccccn4)CC2)C3)c1-c1ccc(C(F)(F)F)cc1` (stereo not drawn) [Example 31, 6-methyl-4′-trifluoromethyl-1,1′-biphenyl-N-[2-[4-(2-pyridinylmethyl)piperazino]indan-5-yl]-2-carboxamide], which melting point is on record?
Answer: Its melting point is 190 to 194 °C.

Question: With `COC(=O)N1CCN(C2Cc3ccc(NC(=O)c4ccccc4-c4ccccc4)cc3C2)CC1` (stereo not drawn) [Example 39] as the molecule, how does the melting point read?
Answer: Its melting point is 164 to 168 °C.

Question: For `Cc1cccc(C(=O)Nc2ccc3c(c2)CC(N2CCN(C(=O)c4ccccc4)CC2)C3)c1-c1ccc(C(F)(F)F)cc1` (stereo not drawn) [Example 28], which melting point is on record?
Answer: The melting point was 120 to 123 °C.

Question: For `COC(=O)N1CCN(C2Cc3ccc(NC(=O)c4ccccc4-c4ccc(C)cc4)cc3C2)CC1` (stereo not drawn) [Example 41], which melting point is on record?
Answer: Its melting point is 136 to 138 °C.

Question: With `CC(=O)N1CCN(C2Cc3ccc(NC(=O)c4cccc(C(F)(F)F)c4-c4ccc(C(F)(F)F)cc4)cc3C2)CC1` (stereo not drawn) [Example 22] as the molecule, how does the melting point read?
Answer: The melting point was 184 to 186 °C.

Question: Which melting point does the source give for `Cc1cccc(C(=O)Nc2ccc3c(c2)CC(N2CCN(C(=O)N(C)C)CC2)C3)c1-c1ccc(C(F)(F)F)cc1` (stereo not drawn) [Example 27] here?
Answer: Its melting point is 217 to 218 °C.

Question: For `Cc1ccc(S(=O)(=O)N2CCN(C3Cc4ccc(NC(=O)c5cccc(C)c5-c5ccc(C(F)(F)F)cc5)cc4C3)CC2)cc1` (stereo not drawn) [Example 23], which melting point is on record?
Answer: Its melting point is 153 to 154 °C.

Question: Which melting point does the source give for `COC(=O)N1CCN(C2Cc3ccc(NC(=O)c4cccc(OC)c4-c4ccc(C(F)(F)F)cc4)cc3C2)CC1` (stereo not drawn) [Example 38] here?
Answer: The melting point was 176 to 178 °C.

Question: For `Cc1cccc(C(=O)Nc2ccc3c(c2)CC(N2CCOCC2)C3)c1-c1ccc(C(F)(F)F)cc1` (stereo not drawn) [Example 7], which melting point is on record?
Answer: Its melting point is 201 to 204 °C.

Question: Which melting point does the source give for `CCCC(=O)N1CCN(C2Cc3ccc(NC(=O)c4cccc(C)c4-c4ccc(C(F)(F)F)cc4)cc3C2)CC1` (stereo not drawn) [Example 21] here?
Answer: Its melting point is 173 to 176 °C.

Question: With `COCC(=O)N1CCN(C2Cc3ccc(NC(=O)c4cccc(C)c4-c4ccc(C(F)(F)F)cc4)cc3C2)CC1` (stereo not drawn) [Example 26] as the molecule, how does the melting point read?
Answer: The melting point was 161 to 162 °C.

Question: For `Cc1cccc(C(=O)Nc2ccc3c(c2)CC(N2CCN(Cc4ccccc4)CC2)C3)c1-c1ccc(C(F)(F)F)cc1` (stereo not drawn) [Example 4], which melting point is on record?
Answer: Its melting point is 188 to 191 °C.

Question: For `Cc1cccc(C(=O)Nc2ccc3c(c2)CC(N2CCN(C)CC2)C3)c1-c1ccc(C(F)(F)F)cc1` (stereo not drawn) [Example 3], which melting point is on record?
Answer: The melting point was 209 to 210 °C.

Question: With `COC(=O)N1CCN(C2Cc3ccc(NC(=O)c4cccc(C)c4-c4ccc(C(F)(F)F)cc4)cc3C2)CC1` (racemic) [Example 1, 6-Methyl-4′-trifluoromethyl-1,1′-biphenyl-N-[2[4-(methoxycarbonyl)-piperazino]-indan-5-yl]-2-carboxamide] as the molecule, how does the melting point read?
Answer: The melting point was 161 to 163 °C.

Question: For `COC(=O)C1CCN(C2Cc3ccc(NC(=O)c4cccc(C)c4-c4ccc(C(F)(F)F)cc4)cc3C2)CC1` (stereo not drawn) [Example 9], which melting point is on record?
Answer: The melting point was 191 to 195 °C.

Question: With `COC(=O)N1CCN(C2Cc3ccc(NC(=O)c4ccccc4-c4ccc(C(F)(F)F)cc4)cc3C2)CC1` (stereo not drawn) [Example 6] as the molecule, how does the melting point read?
Answer: The melting point was 204 to 206 °C.

Question: For `Cc1cccc(C(=O)Nc2ccc3c(c2)CC(N2CCN(c4ccccc4)CC2)C3)c1-c1ccc(C(F)(F)F)cc1` (stereo not drawn) [Example 2], which melting point is on record?
Answer: The melting point was 236 to 238 °C.

Question: For `Cc1cccc(C(=O)Nc2ccc3c(c2)CC(N2CCC(C)CC2)C3)c1-c1ccc(C(F)(F)F)cc1` (stereo not drawn) [Example 12], which melting point is on record?
Answer: The melting point was 219 to 221 °C.

Question: Which melting point does the source give for `COC(=O)N1CCN(C2Cc3ccc(NC(=O)c4cccc(OC)c4-c4ccc(F)cc4)cc3C2)CC1` (stereo not drawn) [Example 13] here?
Answer: Its melting point is 132 to 134 °C.

Question: Which melting point does the source give for `Cc1cccc(C(=O)Nc2ccc3c(c2)CC(N2CCN(C(=O)COCc4ccccc4)CC2)C3)c1-c1ccc(C(F)(F)F)cc1` (stereo not drawn) [Example 29] here?
Answer: The melting point was 160 to 161 °C.

Question: Which melting point does the source give for `COC(=O)N1CCN(C2Cc3ccc(NC(=O)c4cccc(C)c4-c4ccc(F)cc4)cc3C2)CC1` (stereo not drawn) [Example 37] here?
Answer: Its melting point is 141 to 142 °C.

Question: With `Cc1cccc(C(=O)Nc2ccc3c(c2)CC(N2CCC4(CC2)OCCO4)C3)c1-c1ccc(C(F)(F)F)cc1` (stereo not drawn) [Example 11] as the molecule, how does the melting point read?
Answer: Its melting point is 202 to 203 °C.
